# From the kinase profiling compilation of Christmann-Franck et al. (2016)
# Assays:
# Assay in all cases: radiometric filter-binding kinase assay
# [1] = target: CHEK1 (human) (UniProt O14757)
# [2] = target: MAPK15 (human) (UniProt Q8TD08)
# [3] = target: PLK1 (human) (UniProt P53350)
# [4] = target: IRAK4 (human) (UniProt Q9NWZ3)
# [5] = target: MARK1 (human) (UniProt Q9P0L2)
# [6] = target: PIM2 (human) (UniProt Q9P1W9)
# [7] = target: PIM3 (human) (UniProt Q86V86)
# [8] = target: NEK6 (human) (UniProt Q9HC98)
# [9] = target: IKBKE (human) (UniProt Q14164)
# Sequence of IKBKE (human) (Q14164 whole entry, looked up): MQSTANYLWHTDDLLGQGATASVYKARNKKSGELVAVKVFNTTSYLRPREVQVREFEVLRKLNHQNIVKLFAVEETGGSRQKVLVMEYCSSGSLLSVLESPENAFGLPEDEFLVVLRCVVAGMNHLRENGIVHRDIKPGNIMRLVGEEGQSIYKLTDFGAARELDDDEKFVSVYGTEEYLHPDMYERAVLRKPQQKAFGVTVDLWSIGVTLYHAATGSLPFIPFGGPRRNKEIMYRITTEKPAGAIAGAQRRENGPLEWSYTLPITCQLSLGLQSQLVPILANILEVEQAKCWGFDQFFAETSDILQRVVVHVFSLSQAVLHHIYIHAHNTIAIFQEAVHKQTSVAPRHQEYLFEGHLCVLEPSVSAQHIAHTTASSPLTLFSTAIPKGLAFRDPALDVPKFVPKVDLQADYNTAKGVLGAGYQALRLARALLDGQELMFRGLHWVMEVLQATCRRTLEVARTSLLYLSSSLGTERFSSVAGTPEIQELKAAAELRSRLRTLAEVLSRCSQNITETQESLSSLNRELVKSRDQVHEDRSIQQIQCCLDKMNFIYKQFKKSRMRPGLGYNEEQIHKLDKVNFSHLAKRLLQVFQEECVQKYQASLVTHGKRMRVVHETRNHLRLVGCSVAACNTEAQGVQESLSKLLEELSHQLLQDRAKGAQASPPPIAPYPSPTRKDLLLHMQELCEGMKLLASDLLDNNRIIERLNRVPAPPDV
# [10] = target: CAMKK2 (human) (UniProt Q96RR4)
# Sequence of CAMKK2 (human) (Q96RR4 whole entry, looked up): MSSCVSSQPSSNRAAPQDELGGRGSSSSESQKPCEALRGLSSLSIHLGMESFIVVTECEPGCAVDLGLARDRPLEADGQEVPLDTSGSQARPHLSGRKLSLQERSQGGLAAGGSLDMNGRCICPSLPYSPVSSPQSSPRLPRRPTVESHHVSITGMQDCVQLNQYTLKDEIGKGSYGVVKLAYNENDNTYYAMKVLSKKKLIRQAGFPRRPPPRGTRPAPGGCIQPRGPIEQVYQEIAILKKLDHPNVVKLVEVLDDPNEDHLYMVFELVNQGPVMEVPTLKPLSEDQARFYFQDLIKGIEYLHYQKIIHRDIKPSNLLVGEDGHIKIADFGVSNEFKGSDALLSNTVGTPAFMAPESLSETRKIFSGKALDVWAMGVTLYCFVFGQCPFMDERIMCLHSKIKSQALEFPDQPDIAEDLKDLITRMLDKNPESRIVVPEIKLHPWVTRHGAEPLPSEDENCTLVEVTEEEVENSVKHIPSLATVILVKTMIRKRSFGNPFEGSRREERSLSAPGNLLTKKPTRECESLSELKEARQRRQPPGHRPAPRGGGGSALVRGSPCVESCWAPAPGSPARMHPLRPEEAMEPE
# [11] = target: DYRK1A (human) (UniProt Q13627)
# [12] = target: EPHA4 (human) (UniProt P54764)
# Sequence of EPHA4 (human) (P54764 whole entry, looked up): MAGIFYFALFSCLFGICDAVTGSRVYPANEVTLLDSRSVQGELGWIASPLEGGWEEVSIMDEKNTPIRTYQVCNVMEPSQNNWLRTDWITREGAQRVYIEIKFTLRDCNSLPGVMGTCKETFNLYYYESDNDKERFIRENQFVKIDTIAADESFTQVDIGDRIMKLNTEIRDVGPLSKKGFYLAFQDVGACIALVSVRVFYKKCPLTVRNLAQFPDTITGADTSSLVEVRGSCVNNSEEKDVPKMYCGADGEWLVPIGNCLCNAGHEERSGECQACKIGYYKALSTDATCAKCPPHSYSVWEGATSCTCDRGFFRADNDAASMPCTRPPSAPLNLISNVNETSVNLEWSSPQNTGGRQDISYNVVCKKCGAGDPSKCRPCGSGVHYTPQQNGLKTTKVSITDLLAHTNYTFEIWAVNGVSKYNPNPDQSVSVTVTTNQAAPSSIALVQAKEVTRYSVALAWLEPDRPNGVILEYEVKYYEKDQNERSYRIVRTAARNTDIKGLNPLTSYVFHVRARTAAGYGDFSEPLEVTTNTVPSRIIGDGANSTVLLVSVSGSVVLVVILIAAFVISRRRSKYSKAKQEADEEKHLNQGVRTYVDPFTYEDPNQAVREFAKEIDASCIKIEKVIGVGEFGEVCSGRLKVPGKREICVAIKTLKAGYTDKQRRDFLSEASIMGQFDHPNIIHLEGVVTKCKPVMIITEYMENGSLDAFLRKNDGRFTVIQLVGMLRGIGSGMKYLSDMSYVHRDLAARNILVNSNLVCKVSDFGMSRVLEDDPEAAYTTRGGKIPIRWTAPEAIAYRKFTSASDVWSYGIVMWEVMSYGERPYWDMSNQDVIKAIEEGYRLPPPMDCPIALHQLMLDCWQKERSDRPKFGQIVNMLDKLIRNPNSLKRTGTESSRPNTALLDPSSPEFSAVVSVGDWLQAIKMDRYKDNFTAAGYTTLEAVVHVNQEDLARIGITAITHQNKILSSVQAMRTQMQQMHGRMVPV
# [13] = target: MARK2 (human) (UniProt Q7KZI7)
# [14] = target: MAPK14 (human) (UniProt Q16539)
# [15] = target: PAK7 (human) (UniProt Q9P286)
# [16] = target: RPS6KA5 KD1 KD2 (human) (UniProt O75582)
# [17] = target: SRPK1 (human) (UniProt Q96SB4)
# [18] = test system: AKT2 (human), P31751 [S474D]
# [19] = target: RPS6KA3 KD1 KD2 (human) (UniProt P51812)
# [20] = target: PAK4 (human) (UniProt O96013)
# [21] = target: RIPK2 (human) (UniProt O43353)
# [22] = target: PKN2 (human) (UniProt Q16513)
# [23] = target: PAK6 (human) (UniProt Q9NQU5)
# [24] = target: MST4 (human) (UniProt Q9P289)
# [25] = target: MAP3K7 TAB1 (human) (UniProt Q15750+O43318)
# [26] = target: MAPKAPK2 (human) (UniProt P49137)
# [27] = test system: PAK2 (human), Q13177 [T402E]
# [28] = target: HIPK3 (human) (UniProt Q9H422)
# [29] = target: NEK2 (human) (UniProt P51955)
# [30] = test system: SGK1 (human), O00141 [S422D]
# [31] = target: MAPK12 (human) (UniProt P53778)
# [32] = target: MAPK3 (human) (UniProt P27361)
# Sequence of MAPK3 (human) (P27361 whole entry, looked up): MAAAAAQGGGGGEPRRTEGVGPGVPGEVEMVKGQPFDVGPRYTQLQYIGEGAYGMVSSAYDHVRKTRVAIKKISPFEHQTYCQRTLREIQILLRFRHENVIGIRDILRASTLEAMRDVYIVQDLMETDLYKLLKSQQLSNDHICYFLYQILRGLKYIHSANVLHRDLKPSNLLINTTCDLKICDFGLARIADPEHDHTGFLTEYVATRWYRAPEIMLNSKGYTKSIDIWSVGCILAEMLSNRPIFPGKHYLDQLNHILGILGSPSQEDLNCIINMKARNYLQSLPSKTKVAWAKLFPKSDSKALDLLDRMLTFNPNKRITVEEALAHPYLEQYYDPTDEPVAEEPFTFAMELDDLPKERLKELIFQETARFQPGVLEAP
# [33] = target: CLK2 (human) (UniProt P49760)
# [34] = target: CSNK1D (human) (UniProt P48730)
# Sequence of CSNK1D (human) (P48730 whole entry, looked up): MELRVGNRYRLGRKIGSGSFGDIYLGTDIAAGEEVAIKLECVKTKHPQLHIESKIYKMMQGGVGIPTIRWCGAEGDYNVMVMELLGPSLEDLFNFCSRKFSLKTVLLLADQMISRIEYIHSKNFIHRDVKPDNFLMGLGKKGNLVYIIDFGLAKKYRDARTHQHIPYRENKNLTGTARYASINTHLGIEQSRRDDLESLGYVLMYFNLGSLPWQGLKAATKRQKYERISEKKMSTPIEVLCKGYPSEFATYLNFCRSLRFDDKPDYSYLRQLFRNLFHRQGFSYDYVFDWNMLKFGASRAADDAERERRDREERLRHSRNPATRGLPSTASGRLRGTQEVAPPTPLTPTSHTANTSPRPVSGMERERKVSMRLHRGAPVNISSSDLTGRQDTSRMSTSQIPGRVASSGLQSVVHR
# [35] = target: IGF1R (human) (UniProt P08069)
# Sequence of MARK1 (human) (Q9P0L2 whole entry, looked up): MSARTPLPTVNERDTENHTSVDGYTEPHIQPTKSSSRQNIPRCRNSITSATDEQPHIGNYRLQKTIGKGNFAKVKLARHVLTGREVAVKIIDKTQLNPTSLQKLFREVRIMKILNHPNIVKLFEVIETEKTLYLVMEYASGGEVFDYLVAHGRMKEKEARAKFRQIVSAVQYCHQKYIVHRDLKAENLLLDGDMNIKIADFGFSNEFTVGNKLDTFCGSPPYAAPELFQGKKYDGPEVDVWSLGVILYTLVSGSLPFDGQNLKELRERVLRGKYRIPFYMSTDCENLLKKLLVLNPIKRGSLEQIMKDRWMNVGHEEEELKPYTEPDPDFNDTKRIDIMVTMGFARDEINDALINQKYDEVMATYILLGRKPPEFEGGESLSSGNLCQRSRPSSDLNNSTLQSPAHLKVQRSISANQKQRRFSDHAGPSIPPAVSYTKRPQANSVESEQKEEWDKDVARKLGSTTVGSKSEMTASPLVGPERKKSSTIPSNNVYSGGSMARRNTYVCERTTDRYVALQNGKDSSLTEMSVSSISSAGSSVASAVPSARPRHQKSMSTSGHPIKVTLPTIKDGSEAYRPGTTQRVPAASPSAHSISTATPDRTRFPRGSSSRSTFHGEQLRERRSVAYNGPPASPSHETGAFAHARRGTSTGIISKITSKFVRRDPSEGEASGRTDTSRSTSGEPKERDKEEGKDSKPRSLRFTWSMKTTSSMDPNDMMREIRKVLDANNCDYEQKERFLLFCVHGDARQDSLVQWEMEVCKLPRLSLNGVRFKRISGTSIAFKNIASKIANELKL
# Sequence of CHEK1 (human) (O14757 whole entry, looked up): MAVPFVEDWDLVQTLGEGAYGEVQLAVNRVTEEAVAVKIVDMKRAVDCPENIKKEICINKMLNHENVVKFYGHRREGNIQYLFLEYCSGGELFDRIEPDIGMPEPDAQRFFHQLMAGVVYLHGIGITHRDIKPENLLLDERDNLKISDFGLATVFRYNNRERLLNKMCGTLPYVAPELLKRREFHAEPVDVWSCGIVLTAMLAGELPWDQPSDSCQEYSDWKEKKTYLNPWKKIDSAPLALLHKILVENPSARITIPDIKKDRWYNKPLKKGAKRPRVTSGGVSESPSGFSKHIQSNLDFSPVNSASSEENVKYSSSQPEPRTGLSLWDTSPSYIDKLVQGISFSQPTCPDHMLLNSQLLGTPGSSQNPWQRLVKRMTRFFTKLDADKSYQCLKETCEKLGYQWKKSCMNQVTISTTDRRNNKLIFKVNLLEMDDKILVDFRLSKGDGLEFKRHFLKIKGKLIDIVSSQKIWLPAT
# Sequence of PLK1 (human) (P53350 whole entry, looked up): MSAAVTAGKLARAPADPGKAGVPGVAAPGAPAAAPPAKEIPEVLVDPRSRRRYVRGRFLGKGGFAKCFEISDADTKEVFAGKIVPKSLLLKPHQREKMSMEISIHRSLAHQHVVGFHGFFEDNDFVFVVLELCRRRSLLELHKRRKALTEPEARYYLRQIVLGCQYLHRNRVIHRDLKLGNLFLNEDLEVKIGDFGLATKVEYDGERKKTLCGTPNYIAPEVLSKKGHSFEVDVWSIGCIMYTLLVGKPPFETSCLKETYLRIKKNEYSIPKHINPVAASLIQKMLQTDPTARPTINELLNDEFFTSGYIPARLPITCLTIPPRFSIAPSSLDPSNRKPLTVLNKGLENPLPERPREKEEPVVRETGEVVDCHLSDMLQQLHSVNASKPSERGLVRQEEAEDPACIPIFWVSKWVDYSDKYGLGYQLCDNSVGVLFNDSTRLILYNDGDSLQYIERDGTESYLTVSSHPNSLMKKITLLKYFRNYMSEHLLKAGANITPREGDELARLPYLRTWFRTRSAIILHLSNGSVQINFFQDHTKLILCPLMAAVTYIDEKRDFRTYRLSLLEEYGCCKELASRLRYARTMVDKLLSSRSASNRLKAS
smiles,measurement,setting,value
c1ccc2c(-c3cnn4cc(-c5ccc(N6CCNCC6)cc5)cnc34)ccnc2c1,residual activity,[1]; compound 0.1 µM,101%
same,residual activity,[1]; compound 1.0 µM,109%
same,residual activity,[1]; compound 10.0 µM,96%
same,residual activity,[2]; compound 0.1 µM,87%
same,residual activity,[2]; compound 1.0 µM,49%
same,residual activity,[2]; compound 10.0 µM,11%
same,residual activity,[3]; compound 0.1 µM,97%
same,residual activity,[3]; compound 1.0 µM,100%
same,residual activity,[3]; compound 10.0 µM,91%
same,residual activity,[4]; compound 0.1 µM,88%
same,residual activity,[4]; compound 1.0 µM,91%
same,residual activity,[4]; compound 10.0 µM,53%
same,residual activity,[5]; compound 0.1 µM,88%
same,residual activity,[5]; compound 1.0 µM,54%
same,residual activity,[5]; compound 10.0 µM,14%
same,residual activity,[6]; compound 0.1 µM,98%
same,residual activity,[6]; compound 1.0 µM,104%
same,residual activity,[6]; compound 10.0 µM,92%
same,residual activity,[7]; compound 0.1 µM,105%
same,residual activity,[7]; compound 1.0 µM,103%
same,residual activity,[7]; compound 10.0 µM,84%
same,residual activity,[8]; compound 0.1 µM,80%
same,residual activity,[8]; compound 1.0 µM,83%
same,residual activity,[8]; compound 10.0 µM,88%
same,residual activity,[9]; compound 0.1 µM,87%
same,residual activity,[9]; compound 1.0 µM,89%
same,residual activity,[9]; compound 10.0 µM,56%
same,residual activity,[10]; compound 0.1 µM,43%
same,residual activity,[10]; compound 1.0 µM,13%
same,residual activity,[10]; compound 10.0 µM,8%
same,residual activity,[11]; compound 0.1 µM,75%
same,residual activity,[11]; compound 1.0 µM,40%
same,residual activity,[11]; compound 10.0 µM,9%
same,residual activity,[12]; compound 0.1 µM,84%
same,residual activity,[12]; compound 1.0 µM,83%
same,residual activity,[12]; compound 10.0 µM,57%
same,residual activity,[13]; compound 0.1 µM,76%
same,residual activity,[13]; compound 1.0 µM,63%
same,residual activity,[13]; compound 10.0 µM,32%
same,residual activity,[14]; compound 0.1 µM,78%
same,residual activity,[14]; compound 1.0 µM,84%
same,residual activity,[14]; compound 10.0 µM,75%
same,residual activity,[15]; compound 0.1 µM,95%
same,residual activity,[15]; compound 1.0 µM,82%
same,residual activity,[15]; compound 10.0 µM,72%
same,residual activity,[16]; compound 0.1 µM,91%
same,residual activity,[16]; compound 1.0 µM,83%
same,residual activity,[16]; compound 10.0 µM,87%
same,residual activity,[17]; compound 0.1 µM,95%
same,residual activity,[17]; compound 1.0 µM,116%
same,residual activity,[17]; compound 10.0 µM,79%
same,residual activity,[18]; compound 0.1 µM,77%
same,residual activity,[18]; compound 1.0 µM,91%
same,residual activity,[18]; compound 10.0 µM,58%
same,residual activity,[19]; compound 0.1 µM,73%
same,residual activity,[19]; compound 1.0 µM,69%
same,residual activity,[19]; compound 10.0 µM,57%
same,residual activity,[20]; compound 0.1 µM,82%
same,residual activity,[20]; compound 1.0 µM,94%
same,residual activity,[20]; compound 10.0 µM,62%
same,residual activity,[21]; compound 0.1 µM,52%
same,residual activity,[21]; compound 1.0 µM,2%
same,residual activity,[21]; compound 10.0 µM,3%
same,residual activity,[22]; compound 0.1 µM,65%
same,residual activity,[22]; compound 1.0 µM,69%
same,residual activity,[22]; compound 10.0 µM,37%
same,residual activity,[23]; compound 0.1 µM,108%
same,residual activity,[23]; compound 1.0 µM,107%
same,residual activity,[23]; compound 10.0 µM,100%
same,residual activity,[24]; compound 0.1 µM,105%
same,residual activity,[24]; compound 1.0 µM,123%
same,residual activity,[24]; compound 10.0 µM,181%
same,residual activity,[25]; compound 0.1 µM,84%
same,residual activity,[25]; compound 1.0 µM,44%
same,residual activity,[25]; compound 10.0 µM,13%
same,residual activity,[26]; compound 0.1 µM,81%
same,residual activity,[26]; compound 1.0 µM,91%
same,residual activity,[26]; compound 10.0 µM,73%
same,residual activity,[27]; compound 0.1 µM,100%
same,residual activity,[27]; compound 10.0 µM,94%
same,residual activity,[28]; compound 0.1 µM,104%
same,residual activity,[28]; compound 10.0 µM,90%
same,residual activity,[29]; compound 0.1 µM,118%
same,residual activity,[29]; compound 1.0 µM,119%
same,residual activity,[29]; compound 10.0 µM,79%
same,residual activity,[30]; compound 0.1 µM,62%
same,residual activity,[30]; compound 1.0 µM,79%
same,residual activity,[30]; compound 10.0 µM,70%
same,residual activity,[31]; compound 0.1 µM,78%
same,residual activity,[31]; compound 1.0 µM,79%
same,residual activity,[32]; compound 0.1 µM,89%
same,residual activity,[32]; compound 1.0 µM,97%
same,residual activity,[32]; compound 10.0 µM,90%
same,residual activity,[33]; compound 0.1 µM,67%
same,residual activity,[33]; compound 1.0 µM,21%
same,residual activity,[33]; compound 10.0 µM,5%
same,residual activity,[34]; compound 0.1 µM,91%
same,residual activity,[34]; compound 1.0 µM,69%
same,residual activity,[34]; compound 10.0 µM,22%
same,residual activity,[35]; compound 0.1 µM,112%
same,residual activity,[35]; compound 1.0 µM,99%
same,residual activity,[35]; compound 10.0 µM,89%
